Experimental findings from patent publication US10106508B2, “Quinazoline heterocyclic compound as EGFR kinase inhibitor and preparation and application thereof” (BEIJING SCITECH-MQ PHARMACEUTICALS LIMITED, priority 2015, dated 2018) are described below.

For orientation: IC50 means the concentration that inhibits the measured activity by half. A low value points to greater potency in that assay.

Test [1] has as its target EGFR (T790M) (Homo sapiens (Human), UniProt P00533, T790M). The test is described as follows: Kinase-Glo luminescent kinase assay, EGFR tyrosine kinase inhibitory activity (T790M). Type of test: biochemical. The protocol: (§1) Determination of the Compound Inhibitory Activity Against EGFR Kinase
(§2) The inhibitory activity of compounds in formula (I) and (II) were determined using Kinase-Glo luminescent kinase assay. The receptor tyrosine kinase EGFR was tested and Gefitinib, a known EGFR inhibitor, was chosen as the positive control compound. The method is detailed below:
(§3) The sample compounds were dissolved in DMSO and diluted it to 500 μM concentration with DMSO and transferred to a dose plate. The compounds were serially diluted with DMSO in 5 fold concentration. Then each concentration was diluted 10-fold with the reaction buffer to get a 10× final concentration. Transfer the compounds with concentrations ranging from 0.003 μM to 50 μM to EGFR assay plate to determine their kinase activity with a dose of 1 μL/well.
(§4) The positive control compound Gifitinib was dissolved in DMSO as 10 mM stock solution and diluted it to 100 μM concentration with DMSO. The control compound was serially diluted with DMSO in 5 fold concentration. Then each concentration was diluted 10-fold with the reaction buffer to get a 10× final concentration.
(§5) For the HPE (hundred percent effect: No kinase and no compound, but containing ATP, substrate and 1% DMSO) and ZPE (zero percent effect: No compound but containing kinase, ATP, substrate and 1% DMSO) wells, dilute 2 μL DMSO 10-fold with reaction buffer to obtain 10% DMSO solution. Then transfer it to the assay plat, 1 μL/well. The positive control wells contain kinase, ATP, substrate and positive control compound in different concentrations. The sample compound wells contain kinase, ATP, substrate and the compounds to be tested in different concentrations.
(§6) Preparation of the reagents in need: 4×ATP: dilute ATP 4 times with assay buffer to obtain a working solution; 4× substrate: dilute Poly ([…]: tyrosine) 4 times with assay buffer to obtain a working solution; 2.5×EGFR kinase: dilute EGFR kinase 2.5 times with assay buffer to obtain a working solution.
(§7) Kinase reaction: Add 10× compounds to the assay plate in a 384-well plate layout, 1 μL/well. For the HPE and ZPE wells, equal volume (1 μL/well) of 10% DMSO was added to the 384-well assay plate; Add 2.5×EGFR kinase into the assay plate in 384-well plate layout, 4 μL/well. For HPE and ZPE wells, an equal volume (4 μL/well) of assay buffer was added to the 384-well assay plate; Centrifuge the assay plate with 1000 rpm for 1 min to mix them; Pre-incubate the assay plate for 30 min at 30° C.; Mix equal volume of 4×ATP and 4× substrate to obtain 2×ATP-substrate mixture which serves as a reaction mixture for the determination of EGFR activity; Add 2×ATP-substrate mixture to the assay plate, 5 μL/well; Centrifuge the assay plate at 1000 rpm for 1 min to mix them; Incubate the assay plate for one hour at 30° C.; Add Kinase glo plus was to each well (10 μL/well), and then incubated the assay plate for 20 min at 27° C.; Read luminescence signal with Envision plate reader.
Background: Kinase-Glo measures the ATP left after a reaction by luminescence.

Test [2] concerns the target EGFR (WT) (Homo sapiens (Human), UniProt P00533). The test is described as follows: Kinase-Glo luminescent kinase assay, EGFR tyrosine kinase inhibitory activity (WT). Type of test: biochemical. As to conditions: EGFR wild type. The protocol:
as §1, §2, §3, §4, §5, §6, §7

Chain of EGFR (WT) (P00533 25-1210): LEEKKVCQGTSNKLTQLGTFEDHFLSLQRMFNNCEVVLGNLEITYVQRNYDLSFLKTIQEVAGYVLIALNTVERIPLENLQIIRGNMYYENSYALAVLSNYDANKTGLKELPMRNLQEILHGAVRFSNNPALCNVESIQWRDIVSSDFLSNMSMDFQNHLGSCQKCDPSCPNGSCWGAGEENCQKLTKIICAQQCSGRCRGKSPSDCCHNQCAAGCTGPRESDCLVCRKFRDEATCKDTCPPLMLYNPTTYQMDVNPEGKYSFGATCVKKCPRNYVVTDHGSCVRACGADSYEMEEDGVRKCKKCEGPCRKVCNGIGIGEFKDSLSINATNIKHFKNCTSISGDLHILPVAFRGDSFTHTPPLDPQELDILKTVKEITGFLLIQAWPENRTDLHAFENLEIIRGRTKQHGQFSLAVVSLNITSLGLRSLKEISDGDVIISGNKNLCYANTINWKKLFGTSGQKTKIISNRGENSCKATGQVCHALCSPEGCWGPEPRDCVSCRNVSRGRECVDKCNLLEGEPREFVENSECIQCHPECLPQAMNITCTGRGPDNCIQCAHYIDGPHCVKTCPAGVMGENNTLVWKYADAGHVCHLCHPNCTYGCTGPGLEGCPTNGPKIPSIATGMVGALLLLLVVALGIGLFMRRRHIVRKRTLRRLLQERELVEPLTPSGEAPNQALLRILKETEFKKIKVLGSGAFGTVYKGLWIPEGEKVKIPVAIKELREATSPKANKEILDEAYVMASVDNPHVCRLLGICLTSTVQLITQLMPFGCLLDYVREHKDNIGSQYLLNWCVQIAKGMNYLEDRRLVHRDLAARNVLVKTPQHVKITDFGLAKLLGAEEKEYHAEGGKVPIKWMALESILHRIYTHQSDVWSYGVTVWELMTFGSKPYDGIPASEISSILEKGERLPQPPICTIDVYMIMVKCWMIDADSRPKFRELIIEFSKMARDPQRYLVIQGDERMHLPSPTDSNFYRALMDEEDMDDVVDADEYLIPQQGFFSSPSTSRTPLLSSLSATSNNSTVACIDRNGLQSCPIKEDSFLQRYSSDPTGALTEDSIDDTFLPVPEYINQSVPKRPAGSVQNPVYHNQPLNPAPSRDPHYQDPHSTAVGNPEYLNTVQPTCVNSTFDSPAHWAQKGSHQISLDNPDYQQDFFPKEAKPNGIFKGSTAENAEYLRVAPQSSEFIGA
Chain of EGFR (T790M) (P00533 25-1210 T790M): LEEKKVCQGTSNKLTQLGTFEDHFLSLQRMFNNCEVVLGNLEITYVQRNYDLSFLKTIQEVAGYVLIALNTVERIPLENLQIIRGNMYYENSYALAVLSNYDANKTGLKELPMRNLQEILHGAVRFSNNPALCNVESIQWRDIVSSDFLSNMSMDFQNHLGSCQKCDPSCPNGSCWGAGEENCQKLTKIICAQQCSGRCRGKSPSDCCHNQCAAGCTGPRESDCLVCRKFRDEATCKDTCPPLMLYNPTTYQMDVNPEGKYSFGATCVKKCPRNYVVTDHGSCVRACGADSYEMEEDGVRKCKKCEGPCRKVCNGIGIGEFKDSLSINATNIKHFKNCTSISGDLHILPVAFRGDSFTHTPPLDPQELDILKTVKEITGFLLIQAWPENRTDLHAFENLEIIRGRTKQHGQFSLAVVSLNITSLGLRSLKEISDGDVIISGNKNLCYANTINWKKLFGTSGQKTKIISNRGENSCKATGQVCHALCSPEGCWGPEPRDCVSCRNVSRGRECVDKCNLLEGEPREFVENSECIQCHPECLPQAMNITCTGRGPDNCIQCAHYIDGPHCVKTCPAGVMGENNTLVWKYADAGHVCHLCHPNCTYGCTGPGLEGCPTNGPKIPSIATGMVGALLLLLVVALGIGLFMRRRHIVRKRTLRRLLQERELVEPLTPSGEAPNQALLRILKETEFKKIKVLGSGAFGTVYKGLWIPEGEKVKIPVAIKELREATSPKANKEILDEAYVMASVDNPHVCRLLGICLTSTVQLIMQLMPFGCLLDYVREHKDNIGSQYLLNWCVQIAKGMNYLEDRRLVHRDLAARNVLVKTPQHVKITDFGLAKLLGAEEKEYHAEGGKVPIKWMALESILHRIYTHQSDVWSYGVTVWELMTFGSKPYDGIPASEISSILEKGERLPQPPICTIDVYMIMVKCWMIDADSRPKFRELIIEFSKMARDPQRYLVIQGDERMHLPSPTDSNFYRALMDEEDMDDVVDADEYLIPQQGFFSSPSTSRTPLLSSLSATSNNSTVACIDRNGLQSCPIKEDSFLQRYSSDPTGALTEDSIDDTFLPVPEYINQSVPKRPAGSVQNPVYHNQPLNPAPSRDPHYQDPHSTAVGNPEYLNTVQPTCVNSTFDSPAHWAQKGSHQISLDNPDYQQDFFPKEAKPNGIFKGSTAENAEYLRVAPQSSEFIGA

Consider `COc1ccc(Nc2ncnc3cc(OC(C)C)c4c(c23)OCCO4)cc1[N+](=O)[O-]` [Compound I-1, 5-Isopropoxy-N-(4-methoxy-3-nitrophenyl)-2,3-dihydro-[1,4]dioxino[2,3-f]quinazolin-10-amine], for which the IC50 in test [1] and in test [2] was less than 1000 nM in each case.

Regarding `CC(C)Oc1cc2ncnc(Nc3ccc(F)c([N+](=O)[O-])c3)c2c2c1OCCO2` [Compound I-2, N-(4-Fluoro-3-nitrophenyl)-5-isopropoxy-2,3-dihydro-[1,4]dioxino[2,3-f]quinazolin-10-amine], the values for the IC50 in test [1] and in test [2] were less than 1000 nM and less than 100 nM, respectively.

In the case of `Cc1ccc(Nc2ncnc3cc(OC(C)C)c4c(c23)OCCO4)cc1[N+](=O)[O-]` [Compound I-3, 5-Isopropoxy-N-(4-methyl-3-nitrophenyl)-2,3-dihydro-[1,4]dioxino[2,3-f]quinazolin-10-amine], the IC50 is less than 1000 nM in test [1] and less than 200 nM in test [2].

With `CC(C)Oc1cc2ncnc(Nc3ccc(Cl)c([N+](=O)[O-])c3)c2c2c1OCCO2` [Compound I-4, N-(4-Chloro-3-nitrophenyl)-5-isopropoxy-2,3-dihydro-[1,4]dioxino[2,3-f]quinazolin-10-amine], the half-maximal inhibitory concentration (IC50) was less than 1000 nM in test [1] and less than 100 nM in test [2].

As to `CC(C)Oc1cc2ncnc(Nc3ccc(F)c(C#N)c3)c2c2c1OCCO2` [Compound I-5, 2-Fluoro-5-((5-isopropoxy-2,3-dihydro-[1,4]dioxino[2,3-f]quinazolin-10-yl)amino)benzonitrile], the IC50 was less than 1000 nM in test [1] and less than 300 nM in test [2].

In the case of `Cc1ccc(Nc2ncnc3cc(OC(C)C)c4c(c23)OCCO4)cc1C#N` [Compound I-6, 5-((5-Isopropoxy-2,3-dihydro-[1,4]dioxino[2,3-f]quinazolin-10-yl)amino)-2-methylbenzonitrile], the IC50 was less than 1000 nM in test [1] and less than 400 nM in test [2].

Turning to `COCCOc1cc2ncnc(Nc3ccc(OC)c([N+](=O)[O-])c3)c2c2c1OCCO2` [Compound I-9, N-(4-Methoxy-3-nitrophenyl)-5-(2-methoxyethoxy)-2,3-dihydro-[1,4]dioxino[2,3-f]quinazolin-10-amine], the IC50 in test [1] and in test [2] was less than 1000 nM throughout.

On to `COCCOc1cc2ncnc(Nc3ccc(C)c([N+](=O)[O-])c3)c2c2c1OCCO2` [Compound I-11, 5-(2-Methoxyethoxy)-N-(4-methyl-3-nitrophenyl)-2,3-dihydro-[1,4]dioxino[2,3-f]quinazolin-10-amine], for which the IC50 in test [1] was less than 1000 nM; in test [2], less than 100 nM.

For `COCCOc1cc2ncnc(Nc3ccc(Cl)c([N+](=O)[O-])c3)c2c2c1OCCO2` [Compound I-12, N-(4-Chloro-3-nitrophenyl)-5-(2-methoxyethoxy)-2,3-dihydro-[1,4]dioxino[2,3-f]quinazolin-10-amine], the results for the IC50 in test [1] and in test [2] were less than 1000 nM and less than 50 nM, respectively.

On to `COCCOc1cc2ncnc(Nc3ccc(F)c(C#N)c3)c2c2c1OCCO2` [Compound I-13, 2-Fluoro-5-((5-(2-methoxyethoxy)-2,3-dihydro-[1,4]dioxino[2,3-f]quinazolin-10-yl)amino)benzonitrile], for which the values for the IC50 in test [1] and in test [2] were less than 1000 nM and less than 500 nM, respectively.

For the compound `COCCOc1cc2ncnc(Nc3ccc(C)c(C#N)c3)c2c2c1OCCO2` [Compound I-14, 5-((5-(2-Methoxyethoxy)-2,3-dihydro-[1,4]dioxino[2,3-f]quinazolin-10-yl)amino)-2-methylbenzonitrile], the half-maximal inhibitory concentration (IC50) in test [1] and in test [2] was less than 1000 nM throughout.

For `CCOC(C)Oc1cc2ncnc(Nc3ccc(OC)c([N+](=O)[O-])c3)c2c2c1OCCO2` (centres unmarked) [Compound I-15, 5-(1-Ethoxyethoxy)-N-(4-methoxy-3-nitrophenyl)-2,3-dihydro-[1,4]dioxino[2,3-f]quinazolin-10-amine], the concentration for half-maximal inhibition (IC50) in test [1] and in test [2] was less than 1000 nM throughout.

`CCOC(C)Oc1cc2ncnc(Nc3ccc(Cl)c([N+](=O)[O-])c3)c2c2c1OCCO2` (centres unmarked) [Compound I-17, N-(4-Chloro-3-nitrophenyl)-5-(1-ethoxyethoxy)-2,3-dihydro-[1,4]dioxino[2,3-f]quinazolin-10-amine]: the IC50 was less than 1000 nM in test [1] and less than 300 nM in test [2].

`CCOC(C)Oc1cc2ncnc(Nc3ccc(C)c([N+](=O)[O-])c3)c2c2c1OCCO2` (centres unmarked) [Compound I-18, 5-(1-Ethoxyethoxy)-N-(4-methyl-3-nitrophenyl)-2,3-dihydro-[1,4]dioxino[2,3-f]quinazolin-10-amine]: the concentration for half-maximal inhibition (IC50) was less than 1000 nM in test [1] and less than 300 nM in test [2].

Regarding `CCOC(C)Oc1cc2ncnc(Nc3ccc(F)c(C#N)c3)c2c2c1OCCO2` (centres unmarked) [Compound I-19, 5-((5-(1-Ethoxyethoxy)-2,3-dihydro-[1,4]dioxino[2,3-f]quinazolin-10-yl)amino)-2-fluoro-benzonitrile], the IC50 in test [1] was less than 1000 nM; in test [2], less than 300 nM.

With `CCOC(C)Oc1cc2ncnc(Nc3ccc(C)c(C#N)c3)c2c2c1OCCO2` (centres unmarked) [Compound I-20, 5-((5-(1-Ethoxyethoxy)-2,3-dihydro-[1,4]dioxino[2,3-f]quinazolin-10-yl)amino)-2-methylbenzonitrile], the IC50 in test [1] and in test [2] was less than 1000 nM in each case.

On to `C#Cc1cccc(Nc2ncnc3cc(OC(C)COC)c4c(c23)OCCO4)c1` (centres unmarked) [Compound I-26, N-(3-Ethynylphenyl)-5-(1-methoxypropan-2-yloxy)-2,3-dihydro-[1,4]dioxino[2,3-f]quinazolin-10-amine], for which the IC50 in test [1] was less than 300 nM; in test [2], less than 100 nM.

In the case of `CC(C)Oc1cc2ncnc(Nc3ccc(OCc4cccc(F)c4)c(Cl)c3)c2c2c1OCCO2` [Compound I-27, N-(3-Chloro-4-((3-fluorobenzyl)oxy)phenyl)-5-isopropoxy-2,3-dihydro-[1,4]dioxino[2,3-f]quinazolin-10-amine], the IC50 is less than 1000 nM in test [1] and less than 200 nM in test [2].

In the case of `C#Cc1cccc(Nc2ncnc3cc(OC)c4c(c23)OCCO4)c1` [Compound I-28, N-(3-Ethynylphenyl)-5-methoxy-2,3-dihydro-[1,4]dioxino[2,3-f]quinazolin-10-amine], the concentration for half-maximal inhibition (IC50) in test [1] was less than 1000 nM; in test [2], less than 50 nM.

On to `COc1cc2ncnc(Nc3ccc(F)c(Cl)c3)c2c2c1OCCO2` [Compound I-29, N-(3-Chloro-4-fluorophenyl)-5-methoxy-2,3-dihydro-[1,4]dioxino[2,3-f]quinazolin-10-amine], for which the results for the IC50 in test [1] and in test [2] were less than 1000 nM and less than 50 nM, respectively.

Consider `C#Cc1cccc(Nc2ncnc3cc(OCCOC)c4c(c23)OCCO4)c1` [Compound I-31, N-(3-Ethynylphenyl)-5-(2-methoxyethoxy)-2,3-dihydro-[1,4]dioxino[2,3-f]quinazolin-10-amine], for which the IC50 in test [1] and in test [2] was less than 50 nM throughout.

Regarding `COCCOc1cc2ncnc(Nc3ccc(F)cc3)c2c2c1OCCO2` [Compound I-32, N-(4-fluorophenyl)-5-(2-methoxyethoxy)-2,3-dihydro-[1,4]dioxino[2,3-f]quinazolin-10-amine], the IC50 in test [1] is less than 1000 nM; in test [2], less than 200 nM.

For `CCOc1cc2ncnc(Nc3cccc([N+](=O)[O-])c3)c2c2c1OCCO2` [Compound I-38, 5-Ethoxy-N-(3-nitrophenyl)-2,3-dihydro-[1,4]dioxino[2,3-f]quinazolin-10-amine], the IC50 in test [1] and in test [2] was less than 50 nM in each case.

On to `Fc1ccc(Nc2ncnc3cc(OCC4CCCO4)c4c(c23)OCCO4)cc1Cl` (centres unmarked) [Compound I-40, N-(3-Chloro-4-fluorophenyl)-5-((tetrahydrofuran-2-yl)methoxy)-2,3-dihydro-[1,4]dioxino[2,3-f]quinazolin-10-amine], for which the IC50 in test [1] was less than 1000 nM; in test [2], less than 50 nM.

Consider `Cc1ccc(Nc2ncnc3cc4c(cc23)N(CCCN2CCOCC2)C(=O)CO4)cc1Cl` [II-3, 4-((3-Chloro-4-methylphenyl)amino)-6-(3-morpholinopropyl)[1,4]oxazino[3,2-g]quinazolin-7(8H)-one], for which the IC50 is less than 1000 nM in test [1] and less than 200 nM in test [2].
